Read-outs that look alike come from different tables or passages of the source. Starred links: 1 amine or outer side, 2 acyl side, 3 side chain; linkers in the order of their positions; H or OH if unused. Positions of bridges follow the written chain, without caps; N, C: chain ends. Non-standard residues stand in square brackets, D forms with d. Residues, ends and D or L forms follow the SMILES beside them. *: point of attachment. NMeF = CN[C@@H](Cc1ccccc1)C(=O)O; NMeI = CC[C@H](C)[C@H](NC)C(=O)O; NMeβAla = CN(CCC(=O)[*:2])[*:1]; NMeL = CN[C@@H](CC(C)C)C(=O)O; NMeV = CN[C@H](C(=O)O)C(C)C; NMeA = CN[C@@H](C)C(=O)O; Piperidide = C1CCN(*)CC1; dNMeA = CN[C@H](C)C(=O)O; Sar = CNCC(=O)O; tBu = CC(C)(C)*
How the values were obtained:
[1] = Metabolic stability in human hepatic microsome; format: in vitro ADME; conditions: microsomes
[2] = PAMPA (parallel artificial membrane permeability assay); format: in vitro ADME; conditions: PAMPA
How it was run: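 Artificial membrane was 10% (w/v) egg lecithin plus 0.5% (w/v) cholesterol in dodecane on a PVDF filter. A 10 mM DMSO stock was added at 0.5% (v/v) to donor buffer (50 mM MOPSO, pH 6.5, 5.0% glycocholic acid). After 18 h at 37 °C, LC/MS or LC/UV gave donor and acceptor levels for Pe.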

[3] = pH 7.4, human hepatic microsome, NADPH(+), read-out: CL NADPH(+)
[4] = membrane permeation rate (Pe), 50 mM MOPSO buffer pH 6.5 with 5.0% glycocholic acid, 37° C., 18 hours, read-out: iPAMPA Pe

Row | SMILES | microsomal CLint at 1 uM [1, 3] [µL/min/mg] | Papp at 18 hours, 50 µM [2, 4] [×10⁻⁶ cm/s] | microsomal CLint at 1 uM ([1]; human, pH 7.4, CL NADPH(+)) [µL/min/mg] | Papp at 18 hours, 50 µM ([2]; pH 6.5) [×10⁻⁶ cm/s]
1 | CC[C@H](C)[C@@H]1NC(=O)[C@@H](C(C)C)NC(=O)C[C@@H](C(=O)N2CCCCC2)NC(=O)[C@H](C)N(C)C(=O)[C@H](CC(C)C)N(C)C(=O)CN(C)C(=O)[C@H]([C@@H](C)O)NC(=O)[C@H](Cc2ccccc2)N(C)C(=O)[C@H](CC(C)C)N(C)C(=O)[C@H](C)NC(=O)[C@H](C(C)C)N(C)C(=O)[C@H](Cc2ccccc2)N(C)C1=O [DP-132] ([dV]I[NMeF][NMeV]A[NMeL][NMeF]T[Sar][NMeL][NMeA]D-Piperidide; lactam N-12) | 37 | 39 | – | –
2 | CC(C)C[C@@H]1NC(=O)[C@H](C)N(C)C(=O)C[C@@H](C(=O)N2CCCCC2)NC(=O)[C@H](Cc2ccccc2)N(C)C(=O)[C@H](CC(C)C)N(C)C(=O)CN(C)C(=O)[C@H]([C@@H](C)O)NC(=O)[C@H](C)N(C)C(=O)[C@H](C(C)C)N(C)C(=O)[C@H](C)NC(=O)[C@H](CC(C)C)N(C)C(=O)[C@H](Cc2ccccc2)N(C)C1=O [DP-133] ([NMeA]L[NMeF][NMeL]A[NMeV][NMeA]T[Sar][NMeL][NMeF]D-Piperidide; lactam N-12) | 51 | 30 | – | –
3 | CC[C@H](C)[C@@H]1NC(=O)[C@H](Cc2ccccc2)NC(=O)[C@H](Cc2ccccc2)N(C)C(=O)CCN(C)C(=O)C[C@@H](C(=O)N2CCCCC2)NC(=O)[C@H](C)NC(=O)[C@H](CC(C)C)N(C)C(=O)[C@H](CC(C)C)N(C)C(=O)CN(C)C(=O)[C@H]([C@@H](C)O)NC(=O)[C@H](C(C)C)N(C)C(=O)[C@@H]2CCCN2C1=O [DP-134] ([NMeβAla][NMeF]FIP[NMeV]T[Sar][NMeL][NMeL]AD-Piperidide; lactam N-12) | 18 | 13 | – | –
4 | CC[C@H](C)[C@H]1C(=O)N[C@H](C(=O)N2CCCCC2)CC(=O)N[C@H](C)C(=O)N[C@@H](Cc2ccccc2)C(=O)N(C)[C@@H](C)C(=O)N(C)[C@@H](C(C)C)C(=O)N[C@@H]([C@@H](C)O)C(=O)N(C)CC(=O)N(C)[C@@H](CC(C)C)C(=O)N[C@@H](C)C(=O)N1C [DP-135] ([dA]F[NMeA][NMeV]T[Sar][NMeL]A[NMeI]D-Piperidide; lactam N-10) | 15 | 5.2 | – | –
5 | CC[C@H](C)[C@@H]1NC(=O)[C@H](CC(C)C)N(C)C(=O)[C@H](C)N(C)C(=O)[C@@H](C)NC(=O)C[C@@H](C(=O)N2CCCCC2)NC(=O)[C@H](CC(C)C)N(C)C(=O)[C@H](C)N(C)C(=O)[C@H]([C@@H](C)O)NC(=O)[C@H](Cc2ccccc2)N(C)C(=O)[C@H](Cc2ccccc2)N(C)C1=O [DP-136] ([dA][NMeA][NMeL]I[NMeF][NMeF]T[NMeA][NMeL]D-Piperidide; lactam N-10) | 147 | 35 | – | –
6 | CC[C@H](C)[C@@H]1NC(=O)[C@H](Cc2ccccc2)NC(=O)[C@H](C(C)C)N(C)C(=O)CN(C)C(=O)C[C@@H](C(=O)N2CCCCC2)NC(=O)[C@H]([C@@H](C)O)NC(=O)[C@H](CC(C)C)N(C)C(=O)[C@H](Cc2ccccc2)NC(=O)[C@H](CC(C)C)N(C)C(=O)CNC(=O)[C@H](CC(C)C)NC(=O)[C@H](C)N(C)C1=O [DP-137] ([Sar][NMeV]FI[NMeA]LG[NMeL]F[NMeL]TD-Piperidide; lactam N-12) | 86 | 32 | – | –
7 | CC[C@H](C)[C@H]1C(=O)N[C@@H](COC(C)(C)C)C(=O)N[C@H](C(=O)N2CCCCC2)CC(=O)N(C)[C@@H](C)C(=O)N(C)[C@@H](Cc2ccccc2)C(=O)N(C)CC(=O)N(C)[C@@H](CC(C)C)C(=O)N[C@@H]([C@@H](C)O)C(=O)N(C)[C@@H](C)C(=O)N(C)[C@@H](CC(C)C)C(=O)N1C [DP-138] ([NMeA][NMeF][Sar][NMeL]T[NMeA][NMeL][NMeI]S(tBu)D-Piperidide; lactam N-10) | 48 | 31 | – | –
8 | CC(C)C[C@@H]1NC(=O)[C@@H](C)NC(=O)C[C@@H](C(=O)N2CCCCC2)NC(=O)[C@H](CC(C)C)N(C)C(=O)[C@H](C)N(C)C(=O)[C@H](CC(C)C)N(C)C(=O)[C@H](CC(C)C)N(C)C(=O)[C@H](Cc2ccccc2)N(C)C(=O)[C@H](C)NC(=O)[C@H](Cc2ccccc2)N(C)C(=O)[C@H]([C@@H](C)O)NC1=O [DP-139] ([dA]LT[NMeF]A[NMeF][NMeL][NMeL][NMeA][NMeL]D-Piperidide; lactam N-11) | 22 | 23 | – | –
9 | CC[C@H](C)[C@@H]1NC(=O)[C@H](C)N(C)C(=O)CCN(C)C(=O)C[C@@H](C(=O)N2CCCCC2)NC(=O)[C@H](CC(C)C)N(C)C(=O)[C@H](CC(C)C)N(C)C(=O)[C@H](C)N(C)C(=O)[C@H]([C@@H](C)O)NC(=O)[C@H](Cc2ccccc2)N(C)C(=O)[C@H](Cc2ccccc2)N(C)C1=O [DP-140] ([NMeβAla][NMeA]I[NMeF][NMeF]T[NMeA][NMeL][NMeL]D-Piperidide; lactam N-10) | 96 | 61 | – | –
10 | CC[C@H](C)[C@H]1C(=O)N[C@H](C(=O)N2CCCCC2)CC(=O)N(C)[C@H](C)C(=O)N[C@@H](Cc2ccccc2)C(=O)N(C)[C@@H](C)C(=O)N(C)[C@@H](CC(C)C)C(=O)N[C@@H]([C@@H](C)O)C(=O)N(C)CC(=O)N(C)[C@@H](C(C)C)C(=O)N[C@@H](C)C(=O)N1C [DP-142] ([dNMeA]F[NMeA][NMeL]T[Sar][NMeV]A[NMeI]D-Piperidide; lactam N-10) | – | – | 22 | 4
11 | CC(C)C[C@@H]1NC(=O)[C@H](C(C)C)N(C)C(=O)[C@H](Cc2ccccc2)NC(=O)CN(C)C(=O)[C@H]([C@@H](C)O)NC(=O)[C@H](C)N(C)C(=O)[C@H](CC(C)C)N(C)C(=O)[C@@H](C(C)C)NC(=O)C[C@@H](C(=O)N2CCCCC2)NC(=O)[C@H](C)NC(=O)[C@H](CC(C)C)N(C)C1=O [DP-143] ([dV][NMeL][NMeA]T[Sar]F[NMeV]L[NMeL]AD-Piperidide; lactam N-11) | – | – | 25 | 20
12 | CC[C@H](C)[C@H]1C(=O)N[C@H](C(=O)N2CCCCC2)CC(=O)N(C)[C@H](C)C(=O)N(C)[C@@H](C)C(=O)N(C)CC(=O)N(C)[C@@H](CC(C)C)C(=O)N[C@@H]([C@@H](C)O)C(=O)N(C)[C@@H](Cc2ccccc2)C(=O)N(C)[C@@H](CC(C)C)C(=O)N[C@@H](COC(C)(C)C)C(=O)N1C [DP-144] ([dNMeA][NMeA][Sar][NMeL]T[NMeF][NMeL]S(tBu)[NMeI]D-Piperidide; lactam N-10) | – | – | 125 | 65
13 | CC[C@H](C)[C@H]1C(=O)N[C@@H](CC(C)C)C(=O)N(C)[C@@H](Cc2ccccc2)C(=O)N(C)[C@@H](CC(C)C)C(=O)N[C@@H]([C@@H](C)O)C(=O)N[C@@H](Cc2ccccc2)C(=O)N(C)[C@@H](C(C)C)C(=O)N[C@H](C(=O)N2CCCCC2)CC(=O)N(C)CC(=O)N[C@@H](C)C(=O)N1C [DP-145] ([Sar]A[NMeI]L[NMeF][NMeL]TF[NMeV]D-Piperidide; lactam N-10) | 232 | 29 | – | –
14 | CC(C)C[C@@H]1NC(=O)[C@@H]2CCCN2C(=O)[C@H](Cc2ccccc2)N(C)C(=O)[C@H](C)N(C)C(=O)[C@H]([C@@H](C)O)NC(=O)[C@@H](C(C)C)NC(=O)C[C@@H](C(=O)N2CCCCC2)NC(=O)[C@H](CC(C)C)N(C)C(=O)[C@H](C)N(C)C(=O)[C@H](Cc2ccccc2)NC(=O)[C@H](C(C)C)N(C)C1=O [DP-146] ([dV]T[NMeA][NMeF]PL[NMeV]F[NMeA][NMeL]D-Piperidide; lactam N-11) | – | – | 52 | 26
15 | CC[C@H](C)[C@H]1C(=O)N[C@@H](C)C(=O)N(C)[C@@H](CC(C)C)C(=O)N(C)[C@@H](Cc2ccccc2)C(=O)N[C@@H]([C@@H](C)O)C(=O)N(C)[C@@H](Cc2ccccc2)C(=O)N(C)[C@@H](CC(C)C)C(=O)N(C)[C@@H](CC(C)C)C(=O)N[C@H](C(=O)N2CCCCC2)CC(=O)N(C)CC(=O)N1C [DP-147] ([Sar][NMeI]A[NMeL][NMeF]T[NMeF][NMeL][NMeL]D-Piperidide; lactam N-10) | – | – | 147 | 29
16 | CC(C)C[C@H]1C(=O)N[C@@H](COC(C)(C)C)C(=O)N[C@H](C(=O)N2CCCCC2)CC(=O)N[C@H](C)C(=O)N(C)[C@@H](C)C(=O)N(C)[C@@H](Cc2ccccc2)C(=O)N(C)[C@@H](CC(C)C)C(=O)N[C@@H]([C@@H](C)O)C(=O)N(C)[C@@H](C)C(=O)N1C [DP-148] ([dA][NMeA][NMeF][NMeL]T[NMeA][NMeL]S(tBu)D-Piperidide; lactam N-9) | – | – | 69 | 31
17 | CC(C)C[C@H]1C(=O)N[C@@H]([C@@H](C)O)C(=O)N(C)[C@@H](C)C(=O)N[C@H](C(=O)N2CCCCC2)CC(=O)N(C)[C@@H](C)C(=O)N[C@@H](C)C(=O)N(C)[C@@H](Cc2ccccc2)C(=O)N(C)[C@@H](CC(C)C)C(=O)N[C@@H](Cc2ccccc2)C(=O)N1C [DP-150] ([NMeA]A[NMeF][NMeL]F[NMeL]T[NMeA]D-Piperidide; lactam N-9) | 701 | 33 | – | –
18 | CC(C)C[C@H]1C(=O)N(C)[C@@H](CC(C)C)C(=O)N(C)CC(=O)N(C)[C@@H](Cc2ccccc2)C(=O)N[C@@H](C)C(=O)N(C)[C@@H](Cc2ccccc2)C(=O)N(C)[C@@H](CC(C)C)C(=O)N[C@@H]([C@@H](C)O)C(=O)N[C@H](C(=O)N2CCCCC2)CC(=O)N[C@H](C(C)C)C(=O)N(C)[C@@H](C)C(=O)N1C [DP-151] ([dV][NMeA][NMeL][NMeL][Sar][NMeF]A[NMeF][NMeL]TD-Piperidide; lactam N-11) | 30 | 27 | – | –
19 | CC[C@H](C)[C@H]1C(=O)N[C@H](C(=O)N2CCCCC2)CC(=O)N(C)[C@@H](C)C(=O)N(C)[C@@H](CC(C)C)C(=O)N(C)[C@@H](Cc2ccccc2)C(=O)N[C@@H]([C@@H](C)O)C(=O)N(C)CC(=O)N(C)[C@@H](CC(C)C)C(=O)N[C@@H](COC(C)(C)C)C(=O)N1C [DP-152] ([NMeA][NMeL][NMeF]T[Sar][NMeL]S(tBu)[NMeI]D-Piperidide; lactam N-9) | 93 | 61 | – | –
